Source: patent US7417045B2, “Heterocyclic substituted pyridine or phenyl compounds with CXCR3 antagonist activity” (Schering Corporation, priority 2005, dated 2008)

These compounds were tested against T1, human CXCR3 (N-delta 4) (Homo sapiens, UniProt P49682) (assay: Human CXCR3 (N-delta 4) Scintillation Proximity Assay (SPA), [125I] IP-10 binding). Conditions: IC50 rating; [125I] IP-10 displacement, Ba/F3-hCXCR3 (N-delta 4) membranes.
T1 construct: CD8 leader (N); Flag tag; expressed in transfected cells; membranes
T1 sequence (P49682 5-368 limits assumed): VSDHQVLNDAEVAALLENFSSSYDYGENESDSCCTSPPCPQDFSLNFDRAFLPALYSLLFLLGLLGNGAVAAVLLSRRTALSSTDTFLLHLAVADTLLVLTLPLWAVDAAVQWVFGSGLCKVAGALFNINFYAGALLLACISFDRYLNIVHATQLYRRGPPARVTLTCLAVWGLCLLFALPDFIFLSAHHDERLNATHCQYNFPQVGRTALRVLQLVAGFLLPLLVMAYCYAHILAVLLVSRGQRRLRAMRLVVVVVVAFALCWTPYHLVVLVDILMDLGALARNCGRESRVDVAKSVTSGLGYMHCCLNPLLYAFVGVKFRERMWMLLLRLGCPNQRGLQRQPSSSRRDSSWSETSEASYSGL
Outline: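 Membranes from Ba/F3 cells stably expressing Flag-tagged human CXCR3 (N-delta 4), 2 μg per point, precoupled 1 h to WGA SPA beads in HEPES buffer with CaCl2, MgCl2, NaCl, 1.0% BSA. Compounds titrated with 25 pM [125I] IP-10; bound label counted after 3 hr at room temperature.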

| IC50 | Compound |
| --- | --- |
| > 100 nM | CC[C@H]1CN(c2ncc(C3=NCCN3)cc2Cl)CCN1C1CCN(Cc2ccc(C3CC3C(C)(C)O)cc2)CC1 (some centres unmarked) [Compound 152] |
| < 25 nM | CC[C@H]1CN(c2ncc(-c3ncc[nH]3)cc2Cl)CCN1C1CCN(Cc2c(F)cc(F)cc2F)CC1 [Compound 49] |
| 25 to 100 nM | CC[C@H]1CN(c2ncc(-c3ncc[nH]3)cc2Cl)CCN1C1CCN(C(=O)c2ccc(C#CC(C)(C)O)cc2)CC1 [Compound 113] |
| < 25 nM | CC[C@H]1CN(c2ncc(-c3ncc[nH]3)cc2Cl)CCN1C1CCN(Cc2ccc(Cl)cc2F)CC1 [Compound 4] |
| < 25 nM | CC[C@H]1CN(c2ncc(-c3n[nH]c(=O)[nH]3)cc2Cl)CCN1C1CCN(Cc2ccc(Cl)cc2F)CC1 [Compound 88] |
| < 25 nM | CC[C@H]1CN(c2ncc(C3=NCCN3)cc2Cl)CCN1C1CCN(C(=O)c2ccc(Cl)cc2C(N)=NO)CC1 [Compound 93] |
| < 25 nM | CC[C@H]1CN(c2ncc(C3=NCCN3)cc2Cl)CCN1C1CCN(C(=O)c2ccc(Cl)cc2I)CC1 [Compound 85] |
| < 25 nM | CC[C@H]1CN(c2ncc(-c3nnco3)cc2Cl)CCN1C1CCN(Cc2ccc(Cl)cc2F)CC1 [Compound 27] |
| < 25 nM | CC[C@H]1CN(c2ncc(-c3ncc[nH]3)cc2Cl)CCN1C1CCN(Cc2ccc(-n3cccn3)cc2)CC1 [Compound 19] |
| 25 to 100 nM | CC[C@H]1CN(c2ncc(-c3ncc[nH]3)cc2Cl)CCN1C1CCN(C(=O)c2ccc(-n3cncn3)nc2)CC1 [Compound 112] |
| < 25 nM | CC[C@H]1CN(c2ncc(-c3nnc(C)o3)cc2Cl)CCN1C1CCN(Cc2ccc(Cl)cc2F)CC1 [Compound 70] |
| 25 to 100 nM | CC[C@H]1CN(c2ncc(-c3ncc[nH]3)cc2Cl)CCN1C1CCN(C(=O)c2ccc(-c3csnn3)cc2)CC1 [Compound 109] |
| > 100 nM | CC[C@H]1CN(c2ncc(-c3ncc[nH]3)cc2Cl)CCN1C1CCN(Cc2ccc(C#CC(C)(C)N)cc2)CC1 [Compound 134] |
| > 100 nM | CC[C@H]1CN(c2ncc(-c3ncc[nH]3)cc2Cl)CCN1C1CCN([C@H](C(=O)OC)c2ccc(Cl)cc2)CC1 [Compound 133] |
| < 25 nM | CC[C@H]1CN(c2ncc(-c3ncc[nH]3)cc2Cl)CCN1C1CCN(C(=O)c2ccc(Cl)cc2I)CC1 [Compound 86] |
| < 25 nM | CC[C@H]1CN(c2ncc(-c3ncc[nH]3)cc2Cl)CCN1C1CCN([C@@H](C(=O)NC2CC2)c2ccc(Cl)cc2)CC1 [Compound 36] |
| < 25 nM | CC[C@H]1CN(c2ncc(-c3ncc[nH]3)cc2Cl)CCN1C1CCN(Cc2ccc(Cl)cc2C(=O)NN)CC1 [Compound 60] |
| < 25 nM | CC[C@H]1CN(c2c(F)cc(-c3ncc[nH]3)cc2C(F)(F)F)CCN1C1CCN(Cc2ccc(Cl)cc2F)CC1 [Compound 59] |
| > 100 nM | CC[C@H]1CN(c2ncc(C3=NCCN3C(=O)c3ccc(C#N)cc3)cc2Cl)CCN1C1CCN(C(=O)c2ccc(C#N)cc2)CC1 [Compound 161] |
| < 25 nM | CC[C@H]1CN(c2ncc(-c3ncc[nH]3)cc2Cl)CCN1C1CCN(C(=O)c2ccc(C#CCOC)cc2)CC1 [Compound 92] |
| < 25 nM | CC[C@H]1CN(c2ccc(-c3ncc[nH]3)cc2Br)CCN1C1CCN(Cc2ccc(Cl)cc2F)CC1 [Compound 20] |
| < 25 nM | CC[C@H]1CN(c2ncc(-c3ncc[nH]3)cc2Cl)CCN1C1CCN([C@@H](CO)c2ccc(Cl)cc2)CC1 [Compound 10] |
| < 25 nM | CC[C@H]1CN(c2ncc(C3=NCCN3)cc2Cl)CCN1C1CCN([C@H](CO)c2ccc(Cl)cc2)CC1 [Compound 64] |
